Data set [1] has as its target T1, α1G T-type calcium channel (Homo sapiens, UniProt O43497).
T1 construct: host or cells: HEK293
Nature of the data set: Assay for % inhibiting activity against T-type calcium channel using FDSS6000 (fluo-3 calcium imaging, KCl activation). Format: cell-based. The essentials: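 HEK293 cells stably expressing α1G and Kir2.1 loaded with 5 μM fluo-3/AM, then in HEPES buffer (pH 7.4) with 10 mM CaCl2. Compound applied 75 s before 75 mM KCl; intracellular Ca2+ read as […] area, % inhibition relative to untreated control.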

The mark [2] stands for this setting: HEK293, 10 μM, HEK293 cells stably expressing α1G T-type calcium channel and Kir2.1, compounds of the examples, read-out: FDSS (% inhibition)/10uM.
The mark [3] stands for this setting: 10 μM, FDSS (% inhibition), comparative compounds where R6 is a phenyl group, read-out: FDSS.
Where [4] appears, read: 10 μM, HEK293 cells stably expressing α1G T-type calcium channel and Kir2.1, compounds of the examples.

Where two headings read alike, the source gives them in different places.

T1 sequence (O43497 whole entry): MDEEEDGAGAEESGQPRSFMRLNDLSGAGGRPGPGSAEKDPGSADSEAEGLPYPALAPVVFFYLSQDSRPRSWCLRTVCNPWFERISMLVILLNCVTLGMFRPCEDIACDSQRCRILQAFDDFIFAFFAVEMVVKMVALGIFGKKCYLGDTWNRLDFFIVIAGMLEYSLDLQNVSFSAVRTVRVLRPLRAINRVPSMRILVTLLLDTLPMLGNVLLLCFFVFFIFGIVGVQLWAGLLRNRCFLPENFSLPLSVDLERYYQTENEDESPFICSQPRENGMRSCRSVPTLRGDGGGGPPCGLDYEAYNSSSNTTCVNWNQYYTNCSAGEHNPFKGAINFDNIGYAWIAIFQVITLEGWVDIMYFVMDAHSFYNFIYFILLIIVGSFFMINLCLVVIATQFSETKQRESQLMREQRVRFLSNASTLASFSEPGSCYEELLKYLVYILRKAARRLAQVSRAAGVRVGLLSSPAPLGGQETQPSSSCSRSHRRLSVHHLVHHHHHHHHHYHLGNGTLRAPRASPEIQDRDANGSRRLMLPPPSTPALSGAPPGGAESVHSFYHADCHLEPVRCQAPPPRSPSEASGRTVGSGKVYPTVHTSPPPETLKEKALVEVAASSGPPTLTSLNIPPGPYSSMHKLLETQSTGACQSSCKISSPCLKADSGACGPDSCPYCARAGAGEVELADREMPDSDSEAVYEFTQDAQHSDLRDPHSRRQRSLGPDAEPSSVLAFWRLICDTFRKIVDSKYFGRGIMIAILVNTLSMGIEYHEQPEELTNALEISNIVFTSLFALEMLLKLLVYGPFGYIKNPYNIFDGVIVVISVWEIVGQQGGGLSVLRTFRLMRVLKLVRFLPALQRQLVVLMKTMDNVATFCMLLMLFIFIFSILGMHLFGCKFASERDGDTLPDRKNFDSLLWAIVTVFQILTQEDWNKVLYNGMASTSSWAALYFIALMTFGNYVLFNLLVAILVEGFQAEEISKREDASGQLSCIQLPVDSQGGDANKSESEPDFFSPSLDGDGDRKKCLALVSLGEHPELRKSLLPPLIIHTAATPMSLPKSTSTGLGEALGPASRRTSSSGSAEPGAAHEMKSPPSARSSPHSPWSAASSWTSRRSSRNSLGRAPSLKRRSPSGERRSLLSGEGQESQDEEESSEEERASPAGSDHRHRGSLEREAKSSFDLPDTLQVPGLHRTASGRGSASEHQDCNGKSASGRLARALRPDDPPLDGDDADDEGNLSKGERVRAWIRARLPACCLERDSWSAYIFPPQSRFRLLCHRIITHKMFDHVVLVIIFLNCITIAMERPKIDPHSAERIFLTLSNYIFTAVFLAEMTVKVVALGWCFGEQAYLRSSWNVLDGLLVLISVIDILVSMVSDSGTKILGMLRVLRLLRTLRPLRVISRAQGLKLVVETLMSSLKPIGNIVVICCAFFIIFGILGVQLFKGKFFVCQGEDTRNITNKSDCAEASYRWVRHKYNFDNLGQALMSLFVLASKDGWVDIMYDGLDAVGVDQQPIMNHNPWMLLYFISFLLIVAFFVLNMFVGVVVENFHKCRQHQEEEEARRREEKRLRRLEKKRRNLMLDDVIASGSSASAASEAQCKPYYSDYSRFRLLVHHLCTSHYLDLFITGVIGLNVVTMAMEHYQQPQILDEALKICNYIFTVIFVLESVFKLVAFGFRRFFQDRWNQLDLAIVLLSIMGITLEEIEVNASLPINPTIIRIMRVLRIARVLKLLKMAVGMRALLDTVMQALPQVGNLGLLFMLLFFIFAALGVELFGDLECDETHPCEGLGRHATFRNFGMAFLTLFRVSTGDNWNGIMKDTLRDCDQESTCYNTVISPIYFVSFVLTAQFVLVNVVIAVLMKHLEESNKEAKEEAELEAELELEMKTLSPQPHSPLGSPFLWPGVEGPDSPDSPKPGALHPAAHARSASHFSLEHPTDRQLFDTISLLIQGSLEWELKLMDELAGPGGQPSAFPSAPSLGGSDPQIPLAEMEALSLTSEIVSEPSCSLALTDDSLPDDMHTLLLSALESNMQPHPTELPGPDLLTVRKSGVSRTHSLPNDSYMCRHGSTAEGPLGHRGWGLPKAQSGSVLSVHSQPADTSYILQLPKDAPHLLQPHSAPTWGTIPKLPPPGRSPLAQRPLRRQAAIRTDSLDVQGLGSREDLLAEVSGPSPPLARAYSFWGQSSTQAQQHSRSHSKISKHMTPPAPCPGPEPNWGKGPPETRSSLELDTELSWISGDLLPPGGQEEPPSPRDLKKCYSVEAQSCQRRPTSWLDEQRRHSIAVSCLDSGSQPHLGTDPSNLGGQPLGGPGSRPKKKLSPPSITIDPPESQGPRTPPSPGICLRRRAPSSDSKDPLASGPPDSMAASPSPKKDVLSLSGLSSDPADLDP

As usually defined, the melting point is the temperature of the solid-liquid transition. Take `CCCCc1ccc(NC(=O)CC2CSC(=NC3CCCCC3)N2CC)cc1.Cl` (stereo not shown) [KHG24277, [2-cyclohexylimino-3-ethyl-1,3-thiazolidine-4-yl]-N-(4-n-butylphenyl)-acetamide hydrochloride]: the melting point came to 158.4 °C. Besides, the inhibition at 10 µM in data set [1] (setting [2]) worked out at 61.1%.

The compound `CN1C(=NC2CCCC2)SCC1CC(=O)Nc1cc(Cl)ccc1F.Cl` (stereo not shown) [KHG24103, (2-cyclopentylimino-3-methyl-1,3-thiazolidine-4-yl)-N-(5-chloro-2-fluorophenyl)-acetamide hydrochloride] registered a melting point of 214 to 216 °C. Besides, the inhibition at 10 µM in data set [1] (setting [2]) worked out at 45%.

In turn, `CC1SC(=NC2CCCCC2)N(C)C1CC(=O)Nc1cccc(F)c1.Cl` (stereo not shown) [KHG24636, (2-cyclohexylimino-3,5-dimethyl-1,3-thiazolidine-4-yl)-N-(3-fluorophenyl)-acetamide hydrochloride] registered a melting point of 257 to 259 °C. In addition, the inhibition at 10 µM in data set [1] (setting [2]) turned out to be 35.2%.

Compound `CC(C)c1ccc(NC(=O)CC2CSC(=Nc3cccc(Br)c3)N2C)cc1.Cl` (stereo not shown) [KHG21949, [2-(3-bromophenylimino)-3-methyl-1,3-thiazolidine-4-yl]-N-(4-isopropylphenyl)-acetamide hydrochloride] displayed a melting point of 198 to 201 °C. Besides, in data set [1] (setting [3]), the inhibition at 10 µM was found to be 5.41%.

`CCCCN1C(=NC23CC4CC(CC(C4)C2)C3)SCC1CC(=O)Nc1ccc(CC)cc1.Cl` (stereo not shown) [KHG24782, [2-(1-adamantylimino)-3-(n-butyl)-1,3-thiazolidine-4-yl]-N-(4-ethylphenyl)-acetamide hydrochloride]: the melting point came out at 156 °C. The inhibition at 10 µM in data set [1] (setting [2]) was 30.6%.

Take `CC(C)c1ccc(NC(=O)CC2CSC(=Nc3ccc(C#N)cc3)N2C)cc1.Cl` (stereo not shown) [KHG21945, [2-(4-cyanophenylimino)-3-methyl-1,3-thiazolidine-4-yl]-N-(4-isopropylphenyl)-acetamide hydrochloride]: the melting point lay within 234 to 235 °C. Moreover, the inhibition at 10 µM in data set [1] (setting [3]) was determined as 7.71%.

For the compound `CC1SC(=NC2CCCCC2)N(C)C1CC(=O)Nc1cc(CF)cc(CF)c1.Cl` (stereo not shown) [KHG24522, (2-cyclohexylimino-3,5-dimethyl-1,3-thiazolidine-4-yl)-N-(3,5-difluoromethylphenyl)-acetamide hydrochloride], the melting point is 244 to 246 °C. Moreover, in data set [1] (setting [2]), the inhibition at 10 µM worked out at 47.9%.

`CN1C(=NC2CCCCCC2)SCC1C(=O)NCc1ccc(Cl)cc1.Cl` (stereo not shown) [KHG24337, (2-cycloheptylimino-3-methyl-1,3-thiazolidine-4-yl)-N-(4-chlorobenzyl)-carboxamide hydrochloride] came in with a melting point of 220 to 222 °C. In addition, the inhibition at 10 µM in data set [1] (setting [2]) was found to be 56.6%.

In turn, `Cl.O=C(CC1CSC(=NC2CCCCC2)N1Cc1ccccc1)Nc1ccc(Br)cc1` (stereo not shown) [KHG24300, (2-cyclohexylimino-3-benzyl-1,3-thiazolidine-4-yl)-N-(4-bromophenyl)-acetamide hydrochloride] returned a melting point of 181.4 °C. Besides, the inhibition at 10 µM in data set [1] (setting [2]) turned out to be 36.7%.

Compound `CCN1C(=NC2CCCCC2)SCC1CC(=O)NCc1ccc(C)cc1.Cl` (stereo not shown) [KHG24292, (2-cyclohexylimino-3-ethyl-1,3-thiazolidine-4-yl)-N-(4-methylbenzyl)-acetamide hydrochloride] returned a melting point of 172.6 °C. For the same compound, the inhibition at 10 µM in data set [1] (setting [2]) is 43.9%.

Turning to `CN1C(=NC2CCCCCC2)SCC1C(=O)NCc1cccc(Br)c1` (stereo not shown) [KHG24669, (2-cycloheptylimino-3-methyl-1,3-thiazolidine-4-yl)-N-(3-bromobenzyl)-carboxamide], the melting point is 133 °C. In addition, the “FDSS (% inhibition)/10uM” value in data set [1] (setting [4]) is reported as 36.57%.

For the compound `CN1C(=NC2CCCCC2)SCC1CC(=O)Nc1cccc(F)c1.Cl` (stereo not shown) [KHG24109, (2-cyclohexylimino-3-methyl-1,3-thiazolidine-4-yl)-N-(3-fluorophenyl)-acetamide hydrochloride], the melting point is 238 to 239.5 °C. Moreover, in data set [1] (setting [2]), the inhibition at 10 µM was found to be 48.4%.

For `CC(C)N1C(=NC23CC4CC(CC(C4)C2)C3)SCC1CC(=O)Nc1cc([N+](=O)[O-])ccc1F.Cl` (stereo not shown) [KHG24840, [2-(1-adamantylimino)-3-isopropyl-1,3-thiazolidine-4-yl]-N-(2-fluoro-5-nitrophenyl)-acetamide hydrochloride], the melting point was 131 °C. For the same compound, in data set [1] (setting [2]), the inhibition at 10 µM was determined as 49.4%.

In turn, `CCCN1C(=NC2CCCCC2)SCC1CC(=O)Nc1ccc(C(F)(F)F)cc1.Cl` (stereo not shown) [KHG24404, [2-cyclohexylimino-3-(n-propyl)-1,3-thiazolidine-4-yl]-N-(4-trifluoromethylphenyl)-acetamide hydrochloride] showed a melting point of 173.6 to 174.8 °C. Moreover, the inhibition at 10 µM in data set [1] (setting [2]) was determined as 64.7%.

In turn, `CN1C(=NC2CCCCCC2)SCC1C(=O)Nc1ccc(F)c(F)c1` (stereo not shown) [KHG24627, (2-cycloheptylimino-3-methyl-1,3-thiazolidine-4-yl)-N-(3,4-difluorophenyl)-carboxamide] displayed a melting point of 209.6 °C. The inhibition at 10 µM in data set [1] (setting [2]) turned out to be 48.5%.

The compound `CCCN1C(=NC2CCCCC2)SCC1CC(=O)Nc1ccc(Br)cc1.Cl` (stereo not shown) [KHG24288, [2-cyclohexylimino-3-(n-propyl)-1,3-thiazolidine-4-yl]-N-(4-bromophenyl)-acetamide hydrochloride] came in with a melting point of 219.1 °C. For the same compound, in data set [1] (setting [2]), the inhibition at 10 µM amounted to 55%.

`CCCN1C(=NC2CCCCC2)SCC1CC(=O)Nc1ccc(C(C)C)cc1.Cl` (stereo not shown) [KHG24294, [2-cyclohexylimino-3-(n-propyl)-1,3-thiazolidine-4-yl]-N-(4-isopropylphenyl)-acetamide hydrochloride] yielded a melting point of 207 °C. In data set [1] (setting [2]), the inhibition at 10 µM worked out at 65.7%.

Compound `CN1C(=NC2CCCCCC2)SCC1C(=O)Nc1cc(F)ccc1F.Cl` (stereo not shown) [KHG24626, (2-cycloheptylimino-3-methyl-1,3-thiazolidine-4-yl)-N-(2,5-difluorophenyl)-carboxamide hydrochloride] registered a melting point of 187.9 °C. In addition, the inhibition at 10 µM in data set [1] (setting [2]) came out at 42.6%.

`CCc1ccc(NC(=O)CC2C(C)SC(=NC3CCCCCC3)N2C)cc1.Cl` (stereo not shown) [KHG24517, (2-cycloheptylimino-3,5-dimethyl-1,3-thiazolidine-4-yl)-N-(4-ethylphenyl)-acetamide hydrochloride] gave a melting point of 262 to 264 °C. Besides, the inhibition at 10 µM in data set [1] (setting [2]) worked out at 49.6%.

Turning to `CCCCc1ccc(NC(=O)CC2CSC(=NC3CC3)N2C)cc1.Cl` (stereo not shown) [KHG24152, (2-cyclopropylimino-3-methyl-1,3-thiazolidine-4-yl)-N-(4-n-butylphenyl)-acetamide hydrochloride], the melting point was in the range of 227.5 to 228.5 °C. Moreover, the inhibition at 10 µM in data set [1] (setting [2]) stood at 33.9%.

For `Cc1ccc(NC(=O)CC2C(C)SC(=NC3CCCCCC3)N2C)cc1.Cl` (stereo not shown) [KHG24639, (2-cycloheptylimino-3,5-dimethyl-1,3-thiazolidine-4-yl)-N-(4-methylphenyl)-acetamide hydrochloride], the melting point lay within 248 to 250 °C. In addition, the inhibition at 10 µM in data set [1] (setting [2]) worked out at 48.5%.

As to `CC1SC(=NC2CCCCCC2)N(C)C1CC(=O)Nc1ccc(Br)cc1` (stereo not shown) [KHG24486, (2-cycloheptylimino-3,5-dimethyl-1,3-thiazolidine-4-yl)-N-(4-bromophenyl)-acetamide], the melting point was in the range of 253 to 254 °C. In addition, the inhibition at 10 µM in data set [1] (setting [2]) worked out at 55.8%.

Compound `CCN1C(=NC2CCCCC2)SCC1CC(=O)Nc1ccc(Oc2ccccc2)cc1.Cl` (stereo not shown) [KHG24276, [2-cyclohexylimino-3-ethyl-1,3-thiazolidine-4-yl]-N-(4-phenoxyphenyl)-acetamide hydrochloride] displayed a melting point of 160.3 °C. Moreover, the inhibition at 10 µM in data set [1] (setting [2]) was determined as 42.8%.

Take `CC1SC(=NC2CCCCCC2)N(C)C1CC(=O)Nc1ccc(C(C)(C)C)cc1.Cl` (stereo not shown) [KHG24521, (2-cycloheptylimino-3,5-dimethyl-1,3-thiazolidine-4-yl)-N-(4-t-butylphenyl)-acetamide hydrochloride]: the melting point is 239 to 241 °C. In addition, in data set [1] (setting [2]), the inhibition at 10 µM stood at 54.3%.

Consider `CCCCc1ccc(NC(=O)CC2CSC(=NC3CCCCC3)N2CCCC)cc1.Cl` (stereo not shown) [KHG24282, [2-cyclohexylimino-3-(n-butyl)-1,3-thiazolidine-4-yl]-N-(4-n-butylphenyl)-acetamide hydrochloride], for which the melting point came to 209.1 °C. The inhibition at 10 µM in data set [1] (setting [2]) worked out at 43.6%.

`Cl.O=C(CC1CSC(=NC2CCCCC2)N1Cc1ccccc1)Nc1ccc(C(F)(F)F)cc1` (stereo not shown) [KHG24407, (2-cyclohexylimino-3-benzyl-1,3-thiazolidine-4-yl)-N-(4-trifluoromethylphenyl)-acetamide hydrochloride] came in with a melting point of 238.5 °C. The inhibition at 10 µM in data set [1] (setting [2]) is 48.7%.

As to `CCCCc1ccc(NC(=O)CC2C(C)SC(=NC3CCCCCC3)N2C)cc1.Cl` (stereo not shown) [KHG24516, (2-cycloheptylimino-3,5-dimethyl-1,3-thiazolidine-4-yl)-N-(4-n-butylphenyl)-acetamide hydrochloride], the melting point lay in the range of 247 to 249 °C. Moreover, the inhibition at 10 µM in data set [1] (setting [2]) was 54.6%.

As to `CN1C(=Nc2cccc(F)c2)SCC1CC(=O)Nc1ccc(Cl)cc1F.Cl` (stereo not shown) [KHG32076, [2-(3-fluorophenylimino)-3-methyl-1,3-thiazolidine-4-yl]-N-(4-chloro-2-fluorophenyl)-acetamide hydrochloride], the melting point was in the range of 229 to 231 °C. In data set [1] (setting [3]), the inhibition at 10 µM turned out to be 20.5%.

In turn, `CN1C(=NC2CCCCCC2)SCC1C(=O)NCc1ccccc1C(F)(F)F` (stereo not shown) [KHG24671, (2-cycloheptylimino-3-methyl-1,3-thiazolidine-4-yl)-N-(2-trifluoromethylbenzyl)-carboxamide] came in with a melting point of 223 °C. The “FDSS (% inhibition)/10uM” value in data set [1] (setting [4]) stood at 47.2%.

The values are drawn from patent US7998989B2, “2-Imino-1,3-thiazoline-based compounds and T-type calcium channel inhibitors containing the same” (Korea Institute of Science and Technology, priority 2007, dated 2011).
